# In patent US20100056527A1, “BENZOFURAN COMPOUNDS USEFUL IN THE TREATMENT OF CONDITIONS MEDIATED BY THE ACTION OF PGE2 AT THE EP1 RECEPTOR” (Glaxo Group Limited, priority 2007, published 2010):
# Target: T1, human EP1 receptor (Homo sapiens, UniProt P34995)
# T1 construct: expressed in transfected cells; host or cells: CHO-K1 cells (membrane fraction)
# T1 sequence (P34995 1-402): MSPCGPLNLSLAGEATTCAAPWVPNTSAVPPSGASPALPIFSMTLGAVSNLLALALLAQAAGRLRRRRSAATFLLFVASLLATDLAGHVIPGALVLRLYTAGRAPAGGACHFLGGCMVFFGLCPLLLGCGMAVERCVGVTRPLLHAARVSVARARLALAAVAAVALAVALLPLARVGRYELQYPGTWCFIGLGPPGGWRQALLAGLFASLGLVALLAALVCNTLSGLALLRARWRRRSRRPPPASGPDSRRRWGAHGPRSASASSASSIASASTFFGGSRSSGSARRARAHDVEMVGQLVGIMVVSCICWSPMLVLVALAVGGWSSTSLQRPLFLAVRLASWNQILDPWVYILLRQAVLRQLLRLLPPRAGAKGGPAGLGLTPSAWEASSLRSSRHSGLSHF
# Test: human EP1 calcium mobilization assay (FLIPR, PGE2-induced [Ca2+]i)
# Assay type: cell-based
# Details: CHO-K1 cells transfected with EP1 cDNA; antagonism of PGE2; averages of a number of experiments
# Procedure: Briefly, the antagonist properties of compounds are assessed by their ability to inhibit the mobilization of intracellular calcium ([Ca^2+]i) in response to activation of EP1 or EP3 receptors by the natural agonist hormone prostaglandin E2 (PGE2). Increasing concentrations of antagonist reduce the amount of calcium that a given concentration of PGE2 can mobilize. The net effect is to displace the PGE2 concentration-effect curve to higher concentrations of PGE2. The amount of calcium produced is assessed using a calcium-sensitive fluorescent dye such as Fluo-4, AM and a suitable instrument such as a Fluorimetric Imaging Plate Reader (FLIPR). Increasing amounts of [Ca^2+]i produced by receptor activation increase the amount of fluorescence produced by the dye and give rise to an increasing signal. The signal may be detected using the FLIPR instrument and the data generated may be analyzed with suitable curve-fitting software.
# The human EP1 or EP3 calcium mobilization assay (hereafter referred to as ‘the calcium assay’) utilises Chinese hamster ovary-K1 (CHO—K1) cells into which a stable (PClN; BioTechniques 20 (1996): 102-110) vector containing either EP1 or EP3 cDNA has previously been transfected. Cells are cultured in suitable flasks containing culture medium such as DMEM:F-12 supplemented with 10% v/v foetal calf serum, 2 mM L-glutamine, 0.25 mg/ml geneticin, 100 μM flurbiprofen and 10 μg/ml puromycin.
# For assay, cells are harvested using a proprietary reagent that dislodges cells such as Versene. Cells are re-suspended in a suitable quantity of fresh culture media for introduction into a 384-well plate. Following incubation for 24 hours at 37° C. the culture media is replaced with a medium containing Fluo-4 and the detergent pluronic acid, and a further incubation takes place. Concentrations of compounds are then added to the plate in order to construct concentration-effect curves. This may be performed on the FLIPR in order to assess the agonist properties of the compounds. Concentrations of PGE2 are then added to the plate in order to assess the antagonist properties of the compounds.
# The data so generated may be analyzed by means of a computerised curve-fitting routine. The concentration of compound that elicits a half-maximal inhibition of the calcium mobilization induced by PGE2 (pIC50) may then be estimated.
# The compounds of Examples 1-28 and 30-156 were tested in the human EP1 calcium mobilization assay. The results are expressed as functional pKi values. A functional pKi is the negative logarithms of the antagonist dissociation constant as determined in the human EP1 calcium mobilization assay. The results given are averages of a number of experiments.
row,Compound,functional pKi in the human EP1 calcium mobilization assay
1,"Cl.N#Cc1ccc(-c2cc3cc(Cl)cc(Cc4ccc(C(=O)NCC5CCNCC5)o4)c3o2)cc1 [Example 37, 5-{[5-Chloro-2-(4-cyanophenyl)-1-benzofuran-7-yl]methyl}-N-(4-piperidinylmethyl)-2-furancarboxamide hydrochloride]",did not show activity
2,"Cc1cc(C(=O)Nc2ccncc2)nn1Cc1cc(Cl)cc2cc(-c3ccccc3)oc12 [Example 68, 1-[(5-chloro-2-phenyl-1-benzofuran-7-yl)methyl]-5-methyl-N-4-pyridinyl-1H-pyrazole-3-carboxamide]",did not show activity
3,"Cc1cc(C(=O)NC(C)(C)C)nn1Cc1cc(Cl)cc2cc(-c3ccc(F)cc3F)oc12 [Example 112, 1-{[5-chloro-2-(2,4-difluorophenyl)-1-benzofuran-7-yl]methyl}-N-(1,1-dimethylethyl)-5-methyl-1H-pyrazole-3-carboxamide]",did not show activity
4,"CC(C)(C)OC(=O)Nc1ccc(Cc2cc(Cl)cc3cc(-c4ccccc4)oc23)o1 [Example 156, 1,1-Dimethylethyl {5-[(5-chloro-2-phenyl-1-benzofuran-7-yl)methyl]-2-furanyl}carbamate]",did not show activity
